Reference: ChEMBL document CHEMBL3301562, “MMV Box screening against Plasmodium falciparum protein kinases and aminoacyl tRNA synthetases”

How the values were obtained:
Type in all cases: functional
[1] = molecular target: T1, Cdk-related protein kinase 6 (Plasmodium falciparum, UniProt O77239); assay: Final concentrations were 1.5 uM ATP, 5 mM MnCl2, and 15 ug/ml PK6 in a buffer of 100 mM Tris-HCl (pH 7.5). 50 ug/mL MBP was provided as the substrate; 10 uM staurosporine was used as a control inhibitor. Incubation time was 3 hours and 40 minutes.The catalytic activity of each kinase was considered proportional to ATP consumed, as determined from measurements of residual [ATP] with the luciferase-based reagent Kinase-Glo (Promega) following incubation. Luminescence (proportional to residual [ATP]) was measured on the plate readers FLx800 (BioTek Instruments, Winooski, VT, USA) and MicroBeta2.
T1 sequence (O77239 whole entry): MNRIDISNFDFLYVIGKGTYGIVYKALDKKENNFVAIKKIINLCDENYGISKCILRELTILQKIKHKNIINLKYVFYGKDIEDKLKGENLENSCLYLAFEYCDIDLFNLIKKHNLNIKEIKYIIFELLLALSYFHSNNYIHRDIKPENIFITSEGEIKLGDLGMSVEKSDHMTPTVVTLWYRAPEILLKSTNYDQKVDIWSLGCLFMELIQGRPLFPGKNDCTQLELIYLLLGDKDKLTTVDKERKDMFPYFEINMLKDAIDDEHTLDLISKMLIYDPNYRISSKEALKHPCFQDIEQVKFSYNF

[2] = molecular target: Calcium-dependent protein kinase 1 (Plasmodium falciparum, UniProt P62344); assay: MMV: CDPK1 Protein kinase inhibition assay using recombinant PfCDPK1, syntide 2 peptide substrate, ATP and KinaseGlo to measure % inhibition at 1 uM MMV box compound.
[3] = molecular target: T2, Mitogen-activated protein kinase (Plasmodium falciparum, UniProt Q25917); assay: Final concentrations were 1 uM ATP, 0.5 mM DTT, 1 mM MgCl2, 0.5 mg/mL BSA, and 10 ug/ml MAP2 in a buffer of 50 mM HEPES (pH 7.0). 0.5 mg/mL histone III-S served as the substrate (13); 100 uM AMP-PNP, an ATP analog, was used as a control inhibitor. Incubation time was 4 hours.
T2 sequence (Q25917 whole entry): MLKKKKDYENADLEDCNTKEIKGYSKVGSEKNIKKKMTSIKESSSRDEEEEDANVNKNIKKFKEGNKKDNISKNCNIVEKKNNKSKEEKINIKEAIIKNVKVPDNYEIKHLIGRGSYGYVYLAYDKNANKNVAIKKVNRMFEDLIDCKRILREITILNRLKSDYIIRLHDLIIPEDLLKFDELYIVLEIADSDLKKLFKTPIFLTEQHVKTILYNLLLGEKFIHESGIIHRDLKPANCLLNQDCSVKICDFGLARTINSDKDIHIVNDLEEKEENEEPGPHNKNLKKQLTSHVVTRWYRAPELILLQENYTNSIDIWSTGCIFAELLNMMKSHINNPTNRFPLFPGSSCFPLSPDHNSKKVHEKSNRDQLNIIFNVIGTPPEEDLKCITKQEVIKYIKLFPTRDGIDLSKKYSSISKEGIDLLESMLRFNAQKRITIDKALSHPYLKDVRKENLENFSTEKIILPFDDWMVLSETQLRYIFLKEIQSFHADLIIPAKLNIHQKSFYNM

[4] = molecular target: T3, Proline--tRNA ligase (Plasmodium falciparum (isolate 3D7), UniProt Q8I5R7); assay: MMV: ProRS recombinant Plasmodium falciparum Prolyl-tRNA-synthetase, assay with yeast tRNA, ATP, and proline and 3 uM MMV malaria box compound, assay read out with kinase glo as % inhibition.
T3 sequence (Q8I5R7 whole entry): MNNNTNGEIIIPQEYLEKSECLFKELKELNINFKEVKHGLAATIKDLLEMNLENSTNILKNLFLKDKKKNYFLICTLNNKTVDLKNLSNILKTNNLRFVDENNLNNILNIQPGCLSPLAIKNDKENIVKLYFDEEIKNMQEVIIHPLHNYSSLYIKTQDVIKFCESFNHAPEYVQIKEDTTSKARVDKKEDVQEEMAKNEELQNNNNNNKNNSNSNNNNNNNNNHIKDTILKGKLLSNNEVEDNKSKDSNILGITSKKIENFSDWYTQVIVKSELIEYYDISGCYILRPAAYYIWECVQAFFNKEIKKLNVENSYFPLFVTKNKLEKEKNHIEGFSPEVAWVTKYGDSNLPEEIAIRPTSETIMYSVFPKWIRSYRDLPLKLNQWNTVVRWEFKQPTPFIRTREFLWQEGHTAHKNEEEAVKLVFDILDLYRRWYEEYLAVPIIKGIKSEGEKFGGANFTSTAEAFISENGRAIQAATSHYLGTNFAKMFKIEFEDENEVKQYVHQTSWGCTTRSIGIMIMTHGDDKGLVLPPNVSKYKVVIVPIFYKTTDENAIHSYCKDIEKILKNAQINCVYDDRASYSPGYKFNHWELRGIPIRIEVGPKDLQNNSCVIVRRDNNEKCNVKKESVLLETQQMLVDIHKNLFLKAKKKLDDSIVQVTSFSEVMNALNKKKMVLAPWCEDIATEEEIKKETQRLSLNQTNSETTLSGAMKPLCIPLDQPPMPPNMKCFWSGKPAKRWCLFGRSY

[5] = molecular target: T4, Putative uncharacterized protein pk7 (Plasmodium falciparum, UniProt O96214); assay: Final concentrations were 1 uM ATP, 2 mM DTT, 20 mM MgCl2, 2 mM MnCl2, 0.01% BSA, and 6 ug/ml PK7, in a buffer of 20 mM Tris-HCl (pH 7.5). The enzyme itself was the only substrate present (since autophosphorylation occurs); 100 uM 1NA-PP1 was used as a control inhibitor. Incubation time was 3 hours.
T4 sequence (O96214 whole entry): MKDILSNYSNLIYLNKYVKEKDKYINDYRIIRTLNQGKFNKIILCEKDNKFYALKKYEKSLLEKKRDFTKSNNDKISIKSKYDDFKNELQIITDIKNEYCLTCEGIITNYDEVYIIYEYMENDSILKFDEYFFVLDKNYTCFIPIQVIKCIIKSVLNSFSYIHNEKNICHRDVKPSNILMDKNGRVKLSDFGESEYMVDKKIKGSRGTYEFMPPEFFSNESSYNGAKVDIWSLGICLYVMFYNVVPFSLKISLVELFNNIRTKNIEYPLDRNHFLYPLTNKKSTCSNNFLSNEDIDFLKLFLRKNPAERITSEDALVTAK

[6] = molecular target: T5, Calcium-dependent protein kinase 4 (Plasmodium falciparum (isolate 3D7), UniProt Q8IBS5); assay: MMV: CDPK4 Protein kinase inhibition assay using recombinant PfCDPK4, syntide2 peptide substrate, ATP and KinaseGlo to measure % inhibition at 1 uM MMV box compound.
T5 sequence (Q8IBS5 whole entry): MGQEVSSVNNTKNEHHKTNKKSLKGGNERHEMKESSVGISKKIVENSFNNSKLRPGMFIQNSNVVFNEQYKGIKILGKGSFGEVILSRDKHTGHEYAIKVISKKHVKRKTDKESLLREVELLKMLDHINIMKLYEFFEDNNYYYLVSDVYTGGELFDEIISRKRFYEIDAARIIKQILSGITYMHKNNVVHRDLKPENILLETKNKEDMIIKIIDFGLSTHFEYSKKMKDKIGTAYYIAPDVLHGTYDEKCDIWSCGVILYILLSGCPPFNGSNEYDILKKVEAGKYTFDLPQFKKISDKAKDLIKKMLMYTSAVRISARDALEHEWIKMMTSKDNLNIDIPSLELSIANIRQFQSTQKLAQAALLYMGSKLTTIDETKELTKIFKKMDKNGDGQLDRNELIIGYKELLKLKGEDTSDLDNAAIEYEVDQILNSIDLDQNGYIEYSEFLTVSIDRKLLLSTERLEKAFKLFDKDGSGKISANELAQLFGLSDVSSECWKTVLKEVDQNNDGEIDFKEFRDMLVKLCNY

[7] = molecular target: Lysine--tRNA ligase (Plasmodium falciparum (isolate 3D7), UniProt Q8IDJ8); assay: MMV: KRS recombinant Plasmodium falciparum Lysyl-tRNA-synthetase, assay with yeast tRNA, ATP, and lysine and 3 uM MMV malaria box compound, assay read out with kinase glo as % inhibition.
Sequence of Lysine--tRNA ligase (Q8IDJ8 whole entry): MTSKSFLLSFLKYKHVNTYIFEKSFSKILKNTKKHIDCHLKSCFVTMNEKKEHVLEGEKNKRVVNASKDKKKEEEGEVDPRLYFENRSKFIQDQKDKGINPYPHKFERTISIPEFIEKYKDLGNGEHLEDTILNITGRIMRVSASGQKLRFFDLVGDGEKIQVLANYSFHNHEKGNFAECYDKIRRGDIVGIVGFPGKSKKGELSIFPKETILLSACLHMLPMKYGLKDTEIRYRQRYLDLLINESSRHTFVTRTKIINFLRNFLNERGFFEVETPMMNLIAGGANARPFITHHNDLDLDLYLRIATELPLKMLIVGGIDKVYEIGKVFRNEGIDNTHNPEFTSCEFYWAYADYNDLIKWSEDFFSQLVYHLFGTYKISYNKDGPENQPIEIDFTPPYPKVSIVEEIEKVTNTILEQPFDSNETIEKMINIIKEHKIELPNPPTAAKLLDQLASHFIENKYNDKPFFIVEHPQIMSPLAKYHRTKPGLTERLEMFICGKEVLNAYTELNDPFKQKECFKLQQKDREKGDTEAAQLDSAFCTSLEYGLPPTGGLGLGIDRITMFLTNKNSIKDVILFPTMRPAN

Sequence of Calcium-dependent protein kinase 1 (P62344 whole entry): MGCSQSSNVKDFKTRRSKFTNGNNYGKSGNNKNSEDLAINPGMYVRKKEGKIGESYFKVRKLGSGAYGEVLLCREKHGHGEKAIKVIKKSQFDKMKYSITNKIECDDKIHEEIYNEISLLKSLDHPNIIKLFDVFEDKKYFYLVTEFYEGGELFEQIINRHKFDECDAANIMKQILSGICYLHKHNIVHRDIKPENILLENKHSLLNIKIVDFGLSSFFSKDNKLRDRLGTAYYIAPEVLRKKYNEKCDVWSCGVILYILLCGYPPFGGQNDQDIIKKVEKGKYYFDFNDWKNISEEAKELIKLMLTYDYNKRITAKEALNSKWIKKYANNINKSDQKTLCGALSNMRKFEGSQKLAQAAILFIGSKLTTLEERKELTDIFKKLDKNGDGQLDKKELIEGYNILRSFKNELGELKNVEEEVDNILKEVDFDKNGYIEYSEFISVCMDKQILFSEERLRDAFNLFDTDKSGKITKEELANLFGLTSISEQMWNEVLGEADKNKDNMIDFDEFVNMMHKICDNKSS

Row | SMILES | IC50 [1] | IC50 [2] | IC50 [3] | IC50 [4] | IC50 [5] | IC50 [6] | IC50 [7]
1 | COc1cccc(Nc2nc(NCCO)c3ccccc3n2)c1 | > 1000 nM | > 1000 nM | > 1000 nM | > 2500 nM | > 1000 nM | > 1000 nM | > 2500 nM
2 | COc1ccc(C(=O)Nc2ccc3nc(N4CCCCC4)cc(C)c3c2)cc1OC | > 1000 nM | > 1000 nM | > 1000 nM | > 2500 nM | > 1000 nM | > 1000 nM | > 2500 nM
3 | Cn1c(=O)c2cc(C(=O)NCCCN3CCCCCC3)sc2c2ccccc21 | > 1000 nM | > 1000 nM | > 1000 nM | > 2500 nM | > 1000 nM | > 1000 nM | > 2500 nM
4 | COc1ccc(CCN2CCC(CN(C)Cc3cnn(-c4ccccc4)c3)CC2)cc1 | > 1000 nM | > 1000 nM | > 1000 nM | > 2500 nM | > 1000 nM | > 1000 nM | > 2500 nM
5 | O=C(NC(c1ccccc1)c1ccc2cccnc2c1O)c1ccccc1 (centres undefined) | > 1000 nM | > 1000 nM | > 1000 nM | > 2500 nM | > 1000 nM | > 1000 nM | > 2500 nM
6 | Cc1ccc(Cl)cc1N1CCN(CCCNC(=O)C2CCN(c3nc4ccccc4[nH]3)CC2)CC1 | > 1000 nM | > 1000 nM | > 1000 nM | > 2500 nM | > 1000 nM | > 1000 nM | > 2500 nM
7 | COc1ccc(CNC2CCN(c3ccc(NC(=O)c4cccc(Cl)c4)cc3)CC2)cc1OC | > 1000 nM | > 1000 nM | > 1000 nM | > 2500 nM | > 1000 nM | > 1000 nM | > 2500 nM
8 | CC(NCc1ccccc1)c1cc(Cl)ccc1O (centres undefined) | > 1000 nM | > 1000 nM | > 1000 nM | > 2500 nM | > 1000 nM | > 1000 nM | > 2500 nM
9 | O=C(Nc1ccc(CN2CCOCC2)cc1)c1ccc(-c2ccc(Br)cc2)o1 | > 1000 nM | > 1000 nM | > 1000 nM | > 2500 nM | > 1000 nM | > 1000 nM | > 2500 nM
10 | CCN(CC)c1ccc(NC(=O)c2cccs2)cc1 | > 1000 nM | > 1000 nM | > 1000 nM | > 2500 nM | > 1000 nM | > 1000 nM | > 2500 nM
11 | COc1cccc(-c2nn(C)c3sc(C(=O)NCCN4CCN(c5ccccc5F)CC4)cc23)c1 | > 1000 nM | > 1000 nM | > 1000 nM | > 2500 nM | > 1000 nM | > 1000 nM | > 2500 nM
12 | O=C(Nc1ccsc1C(=O)NC1CCCCC1)c1ccc(F)cc1 | > 1000 nM | > 1000 nM | > 1000 nM | > 2500 nM | > 1000 nM | > 1000 nM | > 2500 nM
13 | CCN(CC)c1cc(C)c2cc(NC(=O)c3cccc(OC)c3)ccc2n1 | > 1000 nM | > 1000 nM | > 1000 nM | > 2500 nM | > 1000 nM | > 1000 nM | > 2500 nM
14 | CCOc1ccc(-c2nc(NC(=O)c3cccc(S(C)(=O)=O)c3)sc2C)cc1 | > 1000 nM | > 1000 nM | > 1000 nM | > 2500 nM | > 1000 nM | > 1000 nM | > 2500 nM
15 | CCCc1c(C)nc2ccccc2c1O | > 1000 nM | > 1000 nM | > 1000 nM | > 2500 nM | > 1000 nM | > 1000 nM | > 2500 nM
16 | CN1c2ccccc2N(C)C1c1ccc2c(c1)OCO2 | > 1000 nM | > 1000 nM | > 1000 nM | > 2500 nM | > 1000 nM | > 1000 nM | > 2500 nM
17 | C=C(C)CCC(C)N1CCC(N2CCC(C(=O)NCCc3ccccc3)CC2)CC1 (centres undefined) | > 1000 nM | > 1000 nM | > 1000 nM | > 2500 nM | > 1000 nM | > 1000 nM | > 2500 nM
